Test: Stability of M4N formulations at room temperature (time to crystallized precipitation)
Type: physicochemical
Experimental: A 10 mL solution of M4N at a concentration of about 10 mg/mL in 40% BP-β-CD was made as follows. About 10 mL of the 40% HP-β-CD solution were added to a glass beaker containing a stir bar. The beaker was placed on a magnetic plate and the stir bar was set to stir at medium speed. About […] of M4N were slowly added to the 40% HP-β-CD in the center of the beaker with the aid of a spatula. The M4N/40% HP-β-CD mixture was stirred for 2 hr or until all M4N was uniformly suspended without any clumps being present. The M4N/40% HP-β-CD mixture was optionally heated at 80° C. for about 30 min. (or longer if a larger volume of solution was desired, for example, 1 hr at 80° C. for 100 mL of the M4N/HP-β-CD mixture), or longer as needed to ensure complete dissolution of M4N. […] The final M4N/40% HP-β-CD solution was stored at room temperature and was kept protected from light. This process may be scaled up or down to obtain the requisite volume or concentration of M4N. Formulations containing M4N in other cyclodextrin solutions may be similarly made, such as, for example, by substituting HP-β-CD in the process described above with other cyclodextrins.
A 100 mL solution of M4N at a concentration of about 25 mg/mL in PEG 300 was made as follows. About 100 mL of PEG 300 were added to a glass beaker containing a stir bar. The beaker was placed on a magnetic plate and the stir bar was set to stir at medium speed. About 2.5 g of M4N were slowly added to the PEG 300 in the center of the beaker with the aid of a spatula to prevent M4N from sticking to the beaker wall. The M4N/PEG 300 mixture was stirred for 24 hr or until all M4N had dissolved or was uniformly suspended without any clumps being present. The M4N/PEG 300 mixture was optionally heated at about 60° C. for about 30 min. (or longer if a larger volume of solution was desired, for example, 1 hr at 60° C. for 500 mL of the M4N/PEG 300 mixture), or longer as needed to ensure complete dissolution of M4N. […] If crystals formed, the M4N/PEG 300 solution could be heated again at 60° C. for about 1 hr, with stirring, on a hot magnetic plate until all M4N was dissolved back in solution. The final M4N/PEG 300 solution was stored at room temperature and was kept protected from light. This process may be scaled up or down to obtain the requisite volume or concentration of M4N. Formulations containing M4N in other PEGs may be similarly made, such as, for example, by substituting PEG 300 in the process described above with PEG 400 or PEG 400 monolaurate.
Formulations containing M4N in other water-insoluble lipids combined with non-ionic, ionic or amphipathic surfactants or water-soluble organic solvents may be similarly made, such as, for example, by substituting sesame oil in the process described above with corn oil, olive oil, soybean oil, peppermint oil, or mineral oil and substituting Tween® 20 with Tween® 80, TPGS, lecithin, PEG 300, PEG 400, PEG 400 monolaurate, glycerol, PVP, PG, or other solubilizing agents, and combinations thereof. Stability in reference to the clear liquid solutions herein refers to the time it takes to form crystallized precipitation in solution. A stable solution is one that is clear and free of particulates for an extended period of time.

COc1ccc(C[C@@H](C)[C@@H](C)Cc2ccc(OC)c(OC)c2)cc1OC [Formulation M4N, meso-1,4-bis(3,4-dimethoxyphenyl)-2,3-dimethylbutane]
Stability at Room Temperature (M4N 1 mg/mL suspension in 50% HP-β-CD, 0.5% CMC): >7 days
Stability Time at Room Temperature (M4N 2.4 mg/mL, Sesame Oil, Tween ® 20 and Glycerol, 10% Oil emulsion in 90% saline): <1 days
Stability Time at Room Temperature (M4N 2.9 mg/mL, Sesame Oil and Tween ® 20, 10% Oil emulsion in 90% saline): <3 days
Stability at Room Temperature (M4N 3.13 mg/mL in 5% HP-β-CD, 12.5% PEG 300 (v/v)): <7 days
Stability at Room Temperature (M4N 4.17 mg/mL in 6.7% HP-β-CD, 16.7% PEG 300 (v/v)): >7 days
Stability at Room Temperature (M4N 6.25 mg/mL in 10% HP-β-CD, 25% PEG 300 (v/v)): >7 days
Stability at Room Temperature (M4N 10 mg/mL in 30% HP-β-CD): <3 days
Stability at Room Temperature (M4N 10 mg/mL in 32% HP-β-CD, 20% PEG 400 (v/v)): >7 days
Stability at Room Temperature (M4N 10 mg/mL in 50% HP-β-CD): >7 days
Stability at Room Temperature (M4N 10 mg/mL in 50% HP-β-CD in saline): >7 days
Stability Time at Room Temperature (M4N 10 mg/mL in Peppermint Oil): >3 days
stable at room temperature (M4N 10 mg/mL in Tween® 20): more than 7 days
stable at room temperature (M4N 10 mg/mL in Tween® 80): more than 3 days
Stability at Room Temperature (M4N 12.5 mg/mL in 12.5% HP-β-CD, 50% PEG 300 (v/v)): <1 days
Stability at Room Temperature (M4N 12.5 mg/mL in 12.5% HP-β-CD, 50% PEG 400 (v/v)): <1 days
Stability at Room Temperature (M4N 12.5 mg/mL in 15% HP-β-CD, 50% PEG 300 (v/v)): <7 days
Stability at Room Temperature (M4N 12.5 mg/mL in 15% HP-β-CD, 50% PEG 400 (v/v)): <3 days
Stability at Room Temperature (M4N 12.5 mg/mL in 20% HP-β-CD, 50% PEG 300 (v/v)): >7 days
Stability at Room Temperature (M4N 12.5 mg/mL in 20% HP-β-CD, 50% PEG 400 (v/v)): <7 days
Stability at Room Temperature (M4N 12.5 mg/mL in 30% HP-β-CD, 25% PEG 400 (v/v)): >7 days
Stability at Room Temperature (M4N 12.9 mg/mL in 23% HP-β-CD, 43% PEG 400 (v/v)): >7 days
Stability at Room Temperature (M4N 12.9 mg/mL in 23% HP-β-CD, 43 PEG 300 (v/v)): >7 days
Stability at Room Temperature (M4N 13.3 mg/mL in 27% HP-β-CD, 33% PEG 300 (v/v)): >7 days
Stability at Room Temperature (M4N 13.3 mg/mL in 27% HP-β-CD, 33% PEG 400 (v/v)): >7 days
stable at room temperature (M4N 20 mg/mL in Tween® 20): more than 7 days
Stability at Room Temperature (M4N 20 mg/mL suspension in 50% HP-β-CD, 0.5% CMC): >7 days
Stability Time at Room Temperature (M4N 24.3 mg/mL in 75% Sesame Oil, 9% Tween ® 20, 16% Glycerol): <7 days
Stability Time at Room Temperature (M4N 29 mg/mL in 89% Sesame Oil, 11% Tween ® 20): >7 days
Stability Time at Room Temperature (M4N 40 mg/mL in 50% Peppermint Oil, 50% Tween ® 20): >3 days
stable at room temperature (M4N 40 mg/mL in Tween® 20): less than 3 days
Stability Time at Room Temperature (M4N 50 mg/mL in Camillia Oil): >7 days
Stability Time at Room Temperature (M4N 50 mg/mL in Mineral Oil): <1 days
stable at room temperature (M4N 50 mg/mL in Tween® 80): less than 1 day
Stability Time at Room Temperature (M4N 60 mg/mL in 50% Peppermint Oil, 50% Tween ® 20): >3 days
Stability Time at Room Temperature (M4N 60 mg/mL in Peppermint Oil): <3 days
Stability at Room Temperature (M4N 60 mg/mL suspension in 50% HP-β-CD, 0.5% CMC): >7 days
stable at room temperature (M4N 80 mg/mL in Tween® 20): less than 3 days
Stability Time at Room Temperature (M4N 100 mg/mL in Peppermint Oil): <1 days
Stability Time at Room Temperature (M4N 125 mg/mL in Peppermint Oil): <1 days
stability of the suspension at room temperature (M4N in glycerol monooleate (Glymo), heated to 60° C., cooled): remained stable for two weeks
stable at room temperature (M4N up to 60 mg/mL in 50% Tween® 20 and 50% PEG 400): more than 3 days
Stability Time at Room Temperature (PEG 400 mono-laurate 100%, M4N 20 mg/mL): >3 days
Stability Time at Room Temperature (PEG 400 mono-laurate 100%, M4N 50 mg/mL): <1 days
Stability Time at Room Temperature (Propylene Glycol 100% (w/v), M4N 1 mg/mL): <1 days
Stability Time at Room Temperature (Propylene Glycol 100% (w/v), M4N 10 mg/mL): <1 days
Stability Time at Room Temperature (Propylene Glycol 100% (w/v), M4N 20 mg/mL): <1 days
Stability at Room Temperature (TPGS 20% (w/v), M4N 60 mg/ml, suspension): >3 days
Stability at Room Temperature (TPGS 20% (w/v), M4N 100 mg/ml, suspension): >3 days
